Tests used:
[1] = DPPH free-radical scavenging assay; assay type: biochemical; conditions: result in words; figure values in mg AAE/100 g not given
Description: (§1) The free-radical scavenging activity of 1 and 2 in relation to the 2,2-diphenyl-1-picrylhydrazyl (DPPH) radical was measured using the colorimetric method described by Brand-Williams (1995), and the results are expressed in mg of ascorbic acid equivalent per 100 g of material (AAE/100 g). To evaluate the capacity of hydrogen atom transfer (HAT) of the isolated compounds, male Wistar rat brain homogenate was used as substrate for the production of thiobarbituric acid reactive substances (TBARS) produced by Fe^2+-induced oxidation undertaken at 37 °C, following the experimental conditions described elsewhere. The inhibition of lipid peroxidation was expressed as % of inhibition. The animal protocol was approved by the Ethics Committee (UEPG, protocol 47/2017).

[2] = tested on: Wistar rat brain homogenate; assay: Inhibition of lipid peroxidation (TBARS, Fe2+-induced oxidation) in rat brain homogenate; assay type: biochemical; conditions: at 40 mg/L
Description: as §1

[3] = MTT cytotoxicity assay, A549; assay type: cell-based, human; conditions: human, A549 lung adenocarcinoma epithelial cells, A549, 48 h
Description: (§2) The in vitro cytotoxic effect of 1 and 2 compounds were analyzed in relation to A549 (lung adenocarcinoma epithelial cells—BCRJ code: 0033), HepG2 (human hepatoma carcinoma cells—BCRJ code: 0291), and IMR90 (human lung fibroblast—BCRJ code: 0118) cell lines using MTT (3-(4,5-dimethylthiazol-2-yl)-2,5-diphenyl tetrazolium bromide) (Sigma-Aldrich, COD—M5655) assay. All cell lines were maintained in Dulbecco’s Modified Eagle’s Medium/Nutrient Mixture F-12 Ham (Sigma-Aldrich, COD—D8900), with added 10% fetal bovine serum (FBS, Gibco, COD—16000044) and 100 IU penicillin/100 µg streptomycin (Sigma-Aldrich, COD—P4333). The cell lines were grown in a humidified incubator at 37 °C containing 5% CO2. Briefly, the cells were seeded into 96-well plates at a density of 1 × 10^4 cells/well (HepG2 and A549), 5 × 10^3 cells/well (IMR90), 100 μL/well, and after 24 h, the cells were treated with 100 μL of serial concentrations (10–500 μM) of compounds 1 and 2 for 48 h. The stock solution of extracts contained 5% of dimethyl sulfoxide (DMSO) at a final concentration of 0.2% in cell medium for all in vitro assays. The IC50, GI50, and LC50 parameters were performed in accordance with the method described by do Carmo (2018), in which IC50 is the concentration of the agent that inhibits growth by 50%, calculated as (T/C) × 100 = 50, where T = number of cells at time t of treatment; C = control cells at time t of treatment; GI50 is the concentration of the agent that inhibits growth by 50% relative to untreated cells, calculated as ((T − T0)/(C − T0)) × 100 = 50, where T and C are the number of treated and control cells, respectively, at time t of treatment, and T > T0 where T0 is the number of cells at time zero; LC50 is the concentration of the agent that results in a net loss of 50% cells relative to the number at the start of treatment, calculated as ((T − T0)/T0) × 100 = −50, where T < T0. The experiments were conducted in quadruplicate on three different days to assure the reproducibility of the generated data.

[4] = tested on: A549 (lung adenocarcinoma epithelial cells); assay: MTT cytotoxicity assay, A549; assay type: cell-based, human; conditions: Homo sapiens, A549, 48 h; for IC50: 10–500 μM, read-out: IC50 (cell viability); for GI50: read-out: GI50 (antiproliferative effect)
Description: as §2

[5] = MTT cytotoxicity assay, HepG2; assay type: cell-based, human; conditions: human, HepG2 hepatoma carcinoma cells, HepG2, 48 h
Description: as §2

[6] = tested on: HepG2 (human hepatoma carcinoma cells); assay: MTT cytotoxicity assay, HepG2; assay type: cell-based; conditions: Homo sapiens, HepG2, 48 h; for IC50: 10–500 μM, read-out: IC50 (cell viability); for GI50: read-out: GI50 (antiproliferative effect)
Description: as §2

[7] = MTT cytotoxicity assay, IMR90; assay type: cell-based, human; conditions: human, IMR90 lung fibroblasts, IMR90, 48 h, read-out: LC50 (cell death)
Description: as §2

[8] = tested on: IMR90 (human lung fibroblast); assay: MTT cytotoxicity assay, IMR90; assay type: cell-based; conditions: Homo sapiens, IMR-90, IMR90, 48 h; for IC50: 10–500 μM, read-out: IC50 (cell viability); for GI50: read-out: GI50 (antiproliferative effect)
Description: as §2

A549 cancer cells = assay: Intracellular ROS measurement (DCFH-DA fluorescence), A549; assay type: cell-based, human; conditions: A549, 10, 50 and 100 μM (legend; method says μg/mL), 1 h
Description: (§3) In order to assess the in vitro antioxidant/oxidant potential of 1 and 2, intracellular ROS generation was measured using a fluorescence technique as described by Carmo (2019). Briefly, A549 cancer cells (6 × 10^4/well) and IMR90 normal cells (2 × 10^4/well) were exposed to concentrations of 10, 50, and 100 μg/mL of 1 and 2 compounds, culture medium (negative control), and 15 μmol/L H2O2 (positive control), for 1 h in DCFH-DA solution ([…]), at 37 °C and 5% CO2. Subsequently, cells were washed with PBS and a H2O2 solution (15 μmol/L) added for recording of fluorescence. Intracellular fluorescence intensity of cells was measured at an excitation wavelength of 485 nm and at an emission wavelength of 538 nm. The assays were performed in quadruplicate on three different days.

IMR90 normal cells = assay: Intracellular ROS measurement (DCFH-DA fluorescence), IMR90; assay type: cell-based, human; conditions: IMR90, 10, 50 and 100 μM (legend; method says μg/mL), 1 h
Description: as §3

SMILES	free-radical scavenging activity (DPPH assay) [1]	inhibition of lipoperoxidation in rat brain homogenate [2]	LC50 (concentration causing 50% cell death) at 48 h [3]	IC50 [4]	GI50 [4]	LC50 (concentration causing 50% cell death) at 48 h [5]	IC50 [6]	GI50 [6]	CC50 at 48 h [7]	IC50 [8]	GI50 [8]	intracellular ROS generation (A549 cancer cells)	intracellular ROS generation (IMR90 normal cells)
CC1=CC=C[C@]2(C)CC(=O)C(=C(C)C)C[C@H]12 (relative stereo) [Compound 1, selina-1,3,7(11)-trien-8-one]	insignificant free-radical scavenging activity	did not show inhibitory activity	> 500 µM	> 500 µM	591 µM	> 500 µM	> 500 µM	289 µM	> 500 µM	> 500 µM	185 µM	inducing reactive oxygen species (ROS) generation	inducing reactive oxygen species (ROS) generation
CC1=COC=C[C@]2(C)CC(=O)C(=C(C)C)C[C@H]12 (relative stereo) [Compound 2, oxidoselina-1,3,7(11)-trien-8-one]	insignificant free-radical scavenging activity	did not show inhibitory activity	–	> 500 µM	359 µM	–	525 µM	97.5 µM	> 500 µM	> 500 µM	14.9 µM	inducing reactive oxygen species (ROS) generation	inducing reactive oxygen species (ROS) generation

— PMC7867026, “Selina-1,3,7(11)-trien-8-one and Oxidoselina-1,3,7(11)-trien-8-one from Eugenia uniflora Leaf Essential Oil and Their Cytotoxic Effects on Human Cell Lines” (Molecules, 2021)
